Results taken from patent publication US20230175195A1, “PLASMA COATING TREATMENT METHOD FOR INHIBITING BIOLOGICAL PATHOGEN TRANSFER” (MOLECULAR PLASMA GROUP S.A., priority 2020, published 2023).
Read-outs that look alike come from different tables or passages of the source.

Assays:
Bacteriophage MS2 = test: Viral load reduction test per ASTM E2721-16 with MS2 instead of Influenza A, on plasma-coated substrate; format: cell-based
[1] = tested on: Staphylococcus aureus (gram-positive); test: Quantitative antibacterial activity test of treated materials (OECD guideline, ISO 22197/20743), gram-positive; format: cell-based, S. aureus ATCC6538P
[2] = tested on: Escherichia coli (gram-negative); test: Quantitative antibacterial activity test of treated materials (OECD guideline, ISO 22197/20743), gram-negative
Excerpt: The coatings in the tests described below were obtained using a PlasmaSpot® by Molecular Plasma Technology, using a power around 100 W (but any power between 60-450 W can work), a voltage about 15 kV (but any voltage between 5 and 25 kV seems to work), a frequency about 60 kHz, plasma gas N2, (but also N2, He, Ar, even air and mixtures thereof can be used), a plasma gas flowabout 100 slm (but any plasma flow between 10 and 250 slm can be used), the precursor injected as aerosol (but a liquid precursor, gas precursor, a mixture of liquids, solutions, dispersions, etc . . . also work well), a working distance about 8 mm (but any working distance between 1 and 20 mm seems to work), a temperature about room temperature.
Further tests were performed to illustrate antibacterial behaviour. Tests were performed on a polypropylene nonwoven (PPNW) substrate having a density of 25 g/m^2, which is commonly used as the outer layer of a surgical face mask, and on the synthetic textile Tyvek®.
Droplets containing bacterial suspension are placed on the treated material and evaluated after an incubation period. After the incubation, the bacteria are recovered from the tested material by washing it with a recovery medium. This recovery medium is then analysed for presence of the pathogen by incubation of the recovery medium on agar plates.
The bacteriae used in the testing were Staphylococcus aureus (gram-positive) and Escherichia coli (gram-negative).
The test is based on the international standard given by OECD guidelines for testing of chemicals based on ISO standards 22197/20743: Quantitative method for evaluating antibacterial activity of porous and non-porous antibacterial treated materials.

[3] = plasma coating of the precursor on Tyvek substrate, MS2 phages, LOD = limit of detection
[4] = plasma coating on PPNW substrate (polypropylene nonwoven, 25 g/m^2)
[5] = plasma coating on synthetic textile substrate (Tyvek)

Compound	LOG Reduction (Bacteriophage MS2; [3])	% Gram+ bacteria reduced [1, 4] [%]	Gram+ log reduction [1, 4]	% Gram+ bacteria reduced [1, 5] [%]	Gram+ log reduction [1, 5]	% Gram− bacteria reduced [2, 4] [%]	Gram− log reduction [2, 4]	% Gram− bacteria reduced [2, 5] [%]	Gram− log reduction [2, 5]	LOG Reduction (Bacteriophage MS2)
CCCCCCCCCCCCCCCCCC[N+](C)(C)CCC[Si](OC)(OC)OC.[Cl-] [SiQAM, Dimethyloctadecyl[3-(trimethoxysilyl)propyl] ammonium chloride]	1.56	>99.994	>4.2	>99.95	>3.3	>99.9996	>5.4	>98.7	>1.9	–
Benzalkonium chloride	–	>99.994	>4.2	>99.5	>3.3	99.9996	5.4	98.7	1.9	>3.8 (LOD)
Citric Acid	>5.0 (LOD)	>99.995	>4.3	>99.98	>3.8	>99.999	>5.0	97.5	1.6	–
PVP-I2 Poly(vinylpyrrolidone)-Iodine complex [reference compound]	–	>99.994	>4.2	–	–	>99.9996	>5.4	–	–	–
